One experiment relates to Su-DHL-4 cells. Nature of the experiment: CellTiter-Glo cell proliferation, BCL6 degrader with EZH2 inhibitors. As to conditions: over most of the concentration range. The experiment is classed as cell-based. How it is done:
Enhancer of zeste homolog 2 (EZH2) is a member of the polycomb repressive complex 2 (PRC2) that methylates histone 3 lysine 27, a mark that is associated with gene repression.
To ensure HiBiT signal decrease was due to BCL6 degradation and not from dying cells, CellTiter-Glo® (CTG, Promega™) was performed on the same number of cells that were treated for 24 hours with BCL6 degraders. To study the anti-proliferative effects of BCL6 degraders and its synergistic effect with EZH2 inhibitors, Su-DHL-4 and other DLBCL cells were treated with the compounds at DC99, DC75, DC50, or 1 μM followed by 5 days of culture, at which point CTG values and/or Caspase3/7 activities were measured as percent DMSO treated.
For orientation: In ATP-based viability assays light output follows the ATP content of the culture.

The target of a further experiment is T1, BCL6 (Homo sapiens, UniProt P41182).
T1 construct: Endogenous BCL6 was tagged with the 11-amino acid SmBiT through CRISPR/Cas9 gene editing; endogenous in cells; host or cells: Su-DHL-4 (CRISPR/Cas9 knock-in, single cell clone)
Briefly: HiBiT cellular degradation assay in Su-DHL-4 cells. The experiment is classed as cell-based. Conditions: concentration to reach 50% degradation of endogenous SmBiT-tagged BCL6, 24 hours of compound treatment. The gist of the method:
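SU-DHL-4 cells with endogenous BCL6 SmBiT-tagged by CRISPR/Cas9 treated with compound for 24 hours, then lysed and LgBiT added to reconstitute nanoluciferase; luminescence read after substrate addition. Degradation as percentage of DMSO control; DC50 is concentration giving 50% degradation.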
In general terms: HiBiT is a short tag that completes a luciferase, so light tracks the accessible tagged protein.

This is an account of results in patent US20250074890A1, “CYANOPYRIDINE AND CYANOPYRIMIDINE BCL6 DEGRADERS” (DANA-FARBER CANCER INSTITUTE, INC., priority 2021, published 2025).

As usually defined, the DC50 is the concentration giving 50% degradation. A low value points to degradation at low concentration.

For the compound `CNC(=O)COc1cc2cc(Nc3ncc(C#N)c(N4C[C@@H](C)C(F)(F)[C@@H](C)C4)n3)ccc2n(C)c1=O` [Compound 1, 2-((6-((5-cyano-4-((3S,5R)-4,4-difluoro-3,5-dimethylpiperidin-1-yl)pyrimidin-2-yl)amino)-1-methyl-2-oxo-1,2-dihydroquinolin-3-yl)oxy)-N-methylacetamide], in the experiment with Su-DHL-4 cells (compound 1 (50 nM to 2 nM) added 48 hours after Tazemetostat or Lirametostat (10 μM to 5 nM), read five days later), the “excess over Bliss (eob) score” value is on record as above 1. In addition, the “average synergy score (SynergyFinder)” value in the experiment with Su-DHL-4 cells (compound 1 with Tazemetostat or Lirametostat, Su-DHL-4 cells) was “over 10”. The half-maximal degradation concentration (DC50) on BCL6 is 6 nM.
